The structures appear in SMILES notation.

From US20240342143A1, “APPLICATION OF ALKALOID COMPOUND HIP IN TREATMENT OF CARDIAC TRAUMA” (HUZHOU COLLEGE, priority 2022, published 2024) come the findings set out here.

Common to all, as to type: cell-based
Data set [1] relates to H9c2 cardiomyocytes. Kind of data set: Toxicity effect of Hip on H9c2 cardiomyocytes (MTT colorimetric method). Particulars: 24 h, FIG. 1. As for the experimental part:
H9c2 cells were incubated with the alkaloid compound Hip at different concentrations (0.1μ, 1μ, 5μ, 10μ, 20μ, 40μ, 80μ, 160 μM) of for 24 h. The toxicity effect of the alkaloid compound on cardiomyocytes was evaluated by using the MTT colorimetric method.

In data set [2] the test system is DOX-induced H9c2 cardiomyocytes. Kind of data set: Effect of Hip on DOX-induced H9c2 cardiomyocyte toxicity (MTT colorimetric method). Particulars: 1 h pre-incubation, then 2.5 μM DOX 24 h, FIG. 2. As to the method: (1) H9c2 cells were pre-incubated with the alkaloid compound Hip for 1 h, and then added with 2.5 μM doxorubicin (DOX) for 24 h. The effect of the alkaloid compound Hip for DOX-induced cardiomyocyte apoptosis activity was screened by using the MTT colorimetric method. The optimal concentration range for action was determined.

The test system of data set [3] is Cleaved-Caspase-3. Kind of data set: Western blot of Cleaved-Caspase-3 expression in DOX-induced H9c2 cardiomyocytes. Particulars: FIG. 3. As for the experimental part:
(§1) (2) From H9c2 cardiomyocytes which were treated with different tested seabuckthorn alkaloids for 1 h and then treated with 2.5 μM DOX for 24 h, proteins were extract. That is, the H9c2 cardiomyocytes were lysed and scraped, and the cell lysate were collected and centrifuged at 12,000 g for 15 min to collect the supernatant and discard the precipitate. The supernatant was stored at […], and quantified for proteins using the BCA method for later use. SDS-PAGE electrophoresis was performed by using 5% stacking gel (Step1: 80V, 30 min; Step2: 120V, 180 min). The membrane transfer was performed using a PVDF membrane for 30 min at 80 mA. Blocking and hybridization was performed by blocking in 5% nonfat milk powder for 1 h, incubating with a primary antibody overnight and incubating with a secondary antibody at room temperature for 1-2 h with gentle shaking. Development was performed by ECL reagent development. Expression levels of intracellular Caspase-3 and p-JNK/JNK proteins were observed using a gel imaging system.

For data set [4], the system named is p-JNK. The data set can be described thus: Western blot of p-JNK/JNK expression in DOX-induced H9c2 cardiomyocytes. Particulars: FIG. 4; for expression level of p-JNK vs DOX model group: 1 h, then 2.5 μM DOX 24 h. As to the method:
as §1

[5] abbreviates: 2.5 μM DOX 24 h, DOX model group.

`O=C1CC[C@H]2c3[nH]c4ccc(O)cc4c3CCN12` [Hip, Hippophamide]: the entries for the “viability of H9c2 cells vs Con group” value in data set [1] (Hip 80 μM) and in data set [1] (Hip 0.1~40 μM) were “a significant difference compared with the Con group” and “no statistical difference compared with the Con group”, respectively. For the same molecule, in data set [2] (Hip 5-80 μM), the “difference from DOX model group in DOX-induced myocardial cytotoxicity” value is given as “significantly or extremely significant different”. In addition, in data set [2] (different Hip concentrations), the “inhibition of DOX-induced myocardial cytotoxicity vs DOX model group” value was “can inhibit DOX-induced myocardial cytotoxicity”. Also, the “expression level of Cleaved-Caspase-3 vs DOX model group” value in data set [3] (Hip 10 μM, 20 μM and 40 μM, 1 h, then 2.5 μM DOX 24 h) is “can decrease the increased level of Cleaved-Caspase-3 caused by DOX to varying degree”. The “expression level of p-JNK vs DOX model group” value in data set [4] (Hip high-dose group 40 μM) is listed as “extremely significant differences”; in data set [4] (Hip low-dose group 10 μM) it was “no statistical difference”; in data set [4] (Hip middle-dose group 20 μM), “extremely significant differences”.

As for `COc1cccc2c1C(=O)c1c(O)c3c(c(O)c1C2=O)C[C@@](O)(C(=O)CO)C[C@@H]3O[C@H]1C[C@H](N)[C@H](O)[C@H](C)O1` [DOX, doxorubicin, reference compound], the “expression level of Cleaved-Caspase-3 vs Con group” value in data set [3] (setting [5]) is on record as “can significantly increase the expression level of Cleaved-Caspase-3”. Further, the “expression level of p-JNK vs Con group” value in data set [4] (setting [5]) is given as “can significantly increase the expression level of p-JNK”.
